Measured values: patent US11992697B2, “X-ray psoralen activated cancer therapy (X-PACT)” (IMMUNOLIGHT, LLC, priority 2015, dated 2024)

Legend:
[1] = system: syngeneic 4T1-HER2 tumors; assay: In-vivo X-PACT trial, tumor growth (FIG. 6); parameters: species or system BALB/c mice; conditions: 5 μM psoralen (AMT) or 100 μg phosphor with x-ray; compared with expectation from in-vitro data
Experimental: An in-vivo trial was conducted for preliminary evaluation of X-PACT administered to syngeneic 4T1-HER2 tumors grown on BALB/c mice. There were 4 arms of the trial: (1) saline only (control), (2) phosphors alone with x-ray, (3) psoralen (AMT) alone with x-ray, and (4) full X-PACT treatment including both phosphor and psoralen and x-ray irradiation. X-PACT treatments were given in 3 fractions per week, to a total of 6 fractions. In arms 2-3 a consistent x-ray irradiation technique was used (about 1.2 Gy delivered at 75 kVp by 30 mA in 3 minutes) with 100 μg of phosphor, and 5 μM psoralen (AMT) (with μM representing micromolar). 0.5 Million tumor cells were injected per mouse. There were 6-8 mice per arm, and the study was repeated a second time, yielding effective sample sizes of 12-16.
In this evaluation, X-PACT treatment was applied to BALBC mice with syngeneic 4T1-HER2 tumors. In the separate psoralen and phosphor control arms (blue and red respectively), 5 μM psoralen (AMT) and 100 μg of phosphor where applied. A consistent x-ray irradiation technique was used for all arms (except saline control) which was 2 Gy delivered at 75 kVp by 30 mA in 3 minutes.

[2] = system: 4T1-HER2 cells; assay: In-vitro X-PACT Annexin V (+) signal by Guava flow cytometry (FIGS. 2B, 4, 5); assay type: cell-based, murine; conditions: component alone; 36 independent irradiation experiments, 1 Gy at 80 kVp
Experimental: Guava Annexin V flow cell cytometry was used to quantify cytotoxicity in 3 murine tumor cell lines (breast-4T1, glioma-CT2A, and sarcoma KP15B8). In-vitro X-PACT studies were conducted on cells prepared in the following manner. Cells were incubated in appropriate growing media and buffers before being trypsinized and plated evenly onto twelve (12) well plates for 24 hours. About 20 minutes prior to X-PACT irradiation, the wells of each plate were exposed to the following combinations of additives: (1) control—cells only with no additives, (2) UVADEX only, (3) phosphors only, (4) UVADEX+phosphors. Each plate had twelve (12) wells with three wells for each of the four treatment arms. […]
Two primary flow cytometry metrics were used to evaluate the X-PACT treatments, both determined at 48h after X-PACT treatment. […] The first metric is metabolically viable cell count (or cell viability) determined from the number of whole cells per well as determined using forward scattering (FSC). […] (All wells on a given plate receive the same dose.) The second metric is Annexin V (+) signal, which is the fraction of the metabolically viable cells which expressed a positive Annexin V signal as determined by flow cell cytometry, and include any cells advancing toward early or late apoptotic cell death. […]

[3] = system: CT2A (murine malignant glioma); assay: UV light activated psoralen, Cell-Titer-Glo Luminescence Cell Viability Assay (FIG. 3A); assay type: cell-based; conditions: psoralen 40 μM; UV light 0, 0.25, 0.5, 1.0 J/cm^2
Experimental: (§1) Metabolic cell viability was also assessed visually using Methylene blue staining and ATP-induced Luminescence imaging (Cell-Titer-Glo® Luminescence Cell Viability Assay). The luminescence imaging permitted investigation of the cytotoxicity of psoralen activated directly with a UV lamp, and in the absence of phosphors and x-ray radiation.
(§2) N=4 for each cell line at each UV light condition (0, 0.25, 0.5, 1.0 J/cm^2). The psoralen concentration was 40 μM.

[4] = system: 4T1; assay: as above; assay type: cell-based, murine; conditions: psoralen 40 μM; UV light 0, 0.25, 0.5, 1.0 J/cm^2
Experimental: as §1, §2

[5] = system: KP158B (sarcoma); assay: as above; assay type: cell-based, murine; conditions: psoralen 40 μM; UV light 0, 0.25, 0.5, 1.0 J/cm^2
Experimental: as §1, §2

O=c1ccc2cc3ccoc3cc2o1 [psoralen]
component effect on tumor growth (single-component arm with x-ray) [1]: slightly higher component effect
effect on cytotoxicity (Annexin V signal), multi-variable regression [2]: neither psoralen nor phosphor alone had a strong effect
effect of UV light activated psoralen on viable cells [3]: reduce viable cells
effect of UV light activated psoralen on viable cells [4]: reduce viable cells
effect of UV light activated psoralen on viable cells [5]: reduce viable cells
